Laboratory results: US9006170B2, “Compositions for elastogenesis and connective tissue treatment” (Human Matrix Sciences, LLC, priority 2004, dated 2015)
Like-named read-outs stand apart in the source and are kept apart here.

Experiments:
[1] = test system: normal human skin fibroblasts
Experimental: Assessment of Cell Proliferation. Normal human skin fibroblasts were suspended in DMEM containing 10% FBS and plated in 35 mm culture dishes (100,000 cells/dish) in quadruplicates. […] These cultures were then washed in PBS and treated with cold 5% trichloroacetic acid twice for 10 minutes at 4° C. For 30 minutes, 0.5 ml of 0.3 N NaOH was added to all dishes, and 200 μl aliquots of each culture were mixed with scintillation fluid and counted.

[2] = test system: normal human skin fibroblasts; remark: listed apart in the source
Experimental: Since the net production of elastic fibers depend on the coordinated expression of multiple factors, the expression of three major factors facilitating elasogenesis by immunoflourecent microscopy after exposure of normal human skin fibroblasts to low (20 μM) and high (200 μM) iron concentrations was tested.

elastin mRNA [3] = settings: 24 hours
Experimental: (§1) The intensity of elastin message signal detected by Northern blotting was assessed by densitometry after normalization to GAPDH message levels and the corresponding values are shown in the bar graph in arbitrary units. Elastin mRNA levels assessed by TaqMan real time PCR analysis were normalized to the corresponding levels of GAPDH mRNA and expressed as a percentage of untreated control values.

elastin mRNA [4] = test system: elastin mRNA
Experimental: (§2) Quantitative TaqMan RT-PCR. […] In order to assess the effect of iron on elastin mRNA stability parallel quadruplicate cultures were grown to confluency in 100 mm dishes. […] The reverse transcriptase reaction was performed using 1.5 μg of total RNA, oligo(dT)'s and the SuperScript First-Strand synthesis system (Invitrogen Life Technologies) according to manufacturer's instructions.
(§3) Elastin mRNA levels was measured by real-time quantitative PCR method performed on the ABI PRISM 7700 Sequence Detection System (Applied Biosystems, Foster City, Calif.). For each treatment two distinct amplifications were carried out in parallel in order to amplify elastin cDNA and GAPDH cDNA. The amplification reactions were performed in 25 μl volumes containing 30 ng of cDNA per treatment in triplicate, 12.5 μl of 2× TaqMan Universal PCR Master Mix (Applied Biosystems), and 1.25 μl of 20× Assays-on-Demand Gene Expression probe for elastin (Applied Biosystems) or TaqMan GAPDH probe (Applied Biosystems). Elastin mRNA levels from each treatment was normalized to the corresponding amount of GAPDH mRNA levels. Water controls and samples without PCR mixtures were set up to eliminate the possibility of significant DNA contamination. Final results were expressed as the mean of two independent experiments.
as §1

elastin mRNA [5] = settings: 60 μM DRB
Experimental: as §2, §3
Since steady-state mRNA levels reflect the balance between transcription efficiency and message decay, we further studied whether fluctuations in iron concentration may affect elastin mRNA stability. […] At indicated time points total RNA was extracted and subjected to quantitative TaqMan RT-PCR analysis. The results are expressed as the mean±SD from two separate experiments conducted in quadruplicate cultures.

human skin = settings: 10 μM MnSO4 or 20 μM FAC, 7 days; for elastic fibers (Movat's Pentachrome, ×400): person
From the text: Materials and Methods. Organ cultures of explants were derived from surgical biopsies of human skin. […] All organ cultures were fixed in 1% buffered formalin and their transversal histological sections were stained with Movat pentachrome method to visualize major components of extracellular matrix, including elastic fibers.

[6] = test system: normal human skin fibroblasts; settings: for elastin deposition (immunostaining): 3 days
serine proteinases = settings: 2-200 μM iron
[7] = test system: normal human skin fibroblasts; remark: listed apart in the source
Experimental: Normal human skin fibroblasts were grown to confluency in 35 mm culture dishes (100,000 cells/dish) in quadruplicates. Then, 2 μCi of [^3H]-valine/ml of fresh media was added to each dish, along with or without 2, 20, 100, 200 μM of FAC. […] The cells were extensively washed with PBS and the soluble proteins present in the intracellular compartments were extracted overnight at 4° C. with 0.1 M acetic acid in the presence of proteinase inhibitors. After centrifugation the supernatants were pre-cleaned by 30 minutes incubation with 50 p. […] The protein A-containing beads were sedimented by centrifugation; washed with immunoprecipitation buffer, mixed with scintillation fluid and counted. […] The resulting pellets containing the insoluble elastin were then solubilized by boiling in 200 μl of 5.7 N HCl for 1 hour, and the aliquots were mixed in scintillation fluid and counted. […] Final results reflecting amounts of metabolically labeled insoluble elastin in individual cultures were normalized per their DNA content and expressed as CPM/1 DNA. […] The conditioned media was then removed and the cell layers were washed and incorporation of [^3H]-valine into the insoluble elastin was assessed as described above.

[8] = test system: normal human skin fibroblasts; settings: 3 hours
Experimental: Assays of Intracellular ROS levels. […] This probe passively diffuses into the cell interior and only upon oxidation it releases a fluorescent product that can be visualized under fluorescent microscope or captured by flow cytophotometry, when it is excited at 480 nm. To measure intracellular ROS production normal human skin fibroblasts were plated on glass coverslips in 35 mm dishes (50,000 cells/dish) and grown to confluency. The cells were then washed with PBS and incubated with or without 10 μM of CM-H2DCFDA for 30 minutes in fresh media. The cells were then washed again in PBS and incubated with new media in the presence or absence of FAC (2-400 μM) for 3 additional hours. The cells were then washed twice with PBS before being mounted to the glass slides and the images were captured under a fluorescent microscope under identical parameters of contrast and brightness.
In addition, the quantification of this reaction was performed by flow cytometry (λ excitation 480 nm; λ emission 520 nm). Quadruplicate cultures of fibroblasts were preincubated with CM-H2DCFDA and maintained in the presence or absence of FAC as described above. […] They were then collected by centrifugation (4° C., 1000 RPM for 3 minutes), washed in cold PBS and fixed with 4% formaldehyde for 10 minutes in the dark and analyzed by flow cytometry (FACSCalibur, Beckton Dickinson).

[9] = test system: human dermal fibroblast cultures; assay: Immunohistochemical analysis of elastin synthesis in human dermal fibroblast cultures; type: cell-based; settings: for synthesis of elastin (elastic fibers detected by immunocytochemistry): all concentrations 0.5 μM-2.0 μM, fibroblasts from various aged subjects; for deposition of extracellular matrix components, elastin and collagen type I: human dermal fibroblast cultures
From the text: Refer to FIG. 1, which illustrates both the elastic fibers detected by immunocytochemistry and the morphometric analysis of elastic fibers. MnCl2 and Mn-PCA were introduced into the fibroblasts derived from the various aged subjects over various concentrations.

elastin mRNA [10] = assay: Northern blot analysis of elastin mRNA levels in human aortic smooth muscle cells; type: cell-based
Experimental: (§4) Smooth muscle cells were isolated in the following manner porcine thoracic aortas and coronary arteries were dissected from young pigs obtained from local slaughterhouse. Passage two of human aortic smooth muscle cells from a normal subject was purchased from Clonetics Inc. (San Diego, Calif.). Arterial tissues were diced and explanted in a-MEM (modified Eagle's medium) supplemented with 10% FBS, 25 mM HEPES, L-glutamine, and […]. Tissue samples were diced and cells isolated by collagenase and elastase digestion as previously described.
(§5) Porcine thoracic aortas and coronary arteries were dissected from young pigs obtained from local slaughterhouse. Passage two of human aortic smooth muscle cells from a normal subject was purchased from Clonetics Inc. (San Diego, Calif.). Arterial tissues were diced and explanted in a-MEM (modified Eagle's medium) supplemented with 10% FBS, 25 mM HEPES, L-glutamine, and […]. Tissue samples were diced and cells isolated by collagenase and elastase digestion as previously described. Cells were maintained in a-MEM supplemented with 5% FBS and were routinely passaged by trypsinization. All the experiments were performed using SMC at passage 2-5. […] Aortic and coronary artery SMC's were plated at the initial density 50,000 dish, either directly on plastic or on coverslips, and maintained for 1-2 days until confluency. Cultures were then divided into experimental groups and maintained in the presence and absence of experimental reagents for 7 days. Fresh media were added at days 3 and 5.

[11] = test system: normal human skin fibroblasts; assay: Quantitative assay of insoluble elastin ([3H]-valine metabolic labeling) in fibroblast cultures; type: cell-based; settings: for reversal of the inhibitory effect of 200 μM iron treatment on elastin deposition: antioxidant applied with 200 μM of iron
elastin mRNA [12] = assay: One-step RT-PCR of elastin and β-actin mRNA
Experimental: Total RNA was extracted using the RNeasy Mini Kit, according to manufacturers instructions, and 1 μM of total RNA was added to each one step RT-PCR (Qiagen OneStep RT-PCR Kit) and reactions were set up according to manufacturers instructions in a total volume of 25 μl. The reverse transcription step was performed for elastin and β-actin reactions at 50 ° C. for 30 minutes followed by 15 minutes at 95 ° C.
5 μl samples of the elastin and β-actin PCR products from each reaction were ran on a 2% agarose gel and post-stained with ethidium bromide. The amount of elastin mRNA was standardized relative to the amount of β-actin mRNA.

human dermal fibroblasts = assay: Cellular proliferation of human dermal fibroblasts (total DNA content and [3H]-thymidine incorporation); type: cell-based; settings: person
From the text: Manganese compositions induce cellular proliferation.

[13] = test system: human aortic smooth muscle cells; assay: Metabolic labeling of newly synthesized insoluble elastin by human aortic smooth muscle cells; type: cell-based
Experimental: as §4
as §5, with “Cultures were then divided into experimental groups and maintained in the presence and absence of experimental reagents for 7 days. Fresh media were added at days 3 and 5.” left out

[14] = test system: human dermal fibroblast cultures; settings: immunohistochemistry, versus control
Experimental: In some experiments the serum free medium was also used.
The above prepared fibroblasts and smooth muscle cells were cultured in the presence or absence of (0.5-5 μM) of a manganese salt. Deposition of extracellular matrix components, elastin and collagen type I was assessed in 5-10 days old cultures by immunohistochemistry with a panel of specific antibodies.

[15] = equimolar (20 μM) ferric iron and DFO

ferric ammonium citrate [FAC]
[3H]-thymidine incorporation (proliferation rate) ([1]; high doses of iron (100 μM and 200 μM), 72 hours, listed as iron): proliferate with a significantly higher rate than untreated cells
cellular proliferation rate ([1]; low iron concentrations (lower than 25 μM)): did not cause any increase in cellular proliferation rate
immunodetectable levels of elastin binding protein (EBP) [2]: not changed
immunodetectable levels of fibrillin-1 [2]: not changed
immunodetectable levels of lysyl oxidase [2]: not changed
elastin mRNA levels (Northern blot, corrected for GAPDH) (elastin mRNA [3]; 200 μM of iron): returned back to control values
elastin mRNA levels (Northern blot, corrected for GAPDH) (elastin mRNA [3]; 2 and 20 μM iron): dose-dependent increase in elastin mRNA levels
increase in elastin mRNA levels (elastin mRNA [4]; 20 μM of iron, 24 hours): ~3 fold
tropoelastin mRNA (real-time RT-PCR) (elastin mRNA [4]; 200 μM of iron, 24 hours): significant reduction in tropoelastin mRNA
increase in the elastin mRNA level (elastin mRNA [4]; low iron concentrations (2-20 μM)): 2-3 fold
elastin mRNA half-life (elastin mRNA [5]; 20 μM iron): ~16 h
decrease in elastin mRNA level (elastin mRNA [5]; 200 μM iron): about 2.5 fold
elastin mRNA half-life (elastin mRNA [5]; 200 μM iron): ~6 h
agitation and migration of stratum basale-derived cells with fibroblastic phenotype (human skin): higher than control level of agitation and migration of stratum basale-derived cells with fibroblastic phenotype
infiltrating activated (differentiating) cells (×600) (human skin): seem to contain more such activated cells
elastic fibers (Movat's Pentachrome, ×400) (human skin): induced deposition of shorter elastic fibers primarily running parallel to the epidermis
elastin deposition (immunostaining) ([6]; 100 μM iron): did not induce better elastin deposition then treatment with 20
elastin deposition (immunostaining) ([6]; 200 μM of iron): dragged elastin deposition back to the control levels
production of elastic fibers (immunostaining) ([6]; 2 and 20 μM of iron, 3-day-long treatment): significantly increased the production of elastic fibers over control levels
elastolytic activity of serine proteinases (serine proteinases): did not stimulate elastolytic activity of serine proteinases
[3H]-valine-labeled tropoelastin synthesis ([7]; 2 and 20 μM iron, 72 hours): syntesize more [^3H]-valine-labeled tropoelastin than untreated counterparts
tropoelastin production ([7]; 100 and 200 μM iron versus 20 μM): lower tropoelastin production as compared to those treated with 20 μM
intracellular ROS production ([8]; 2-40 μM of iron): produced the same amount of ROS as untreated controls
intracellular ROS production ([8]; 100-400 μM iron): dose dependant increase in ROS production

manganese chloride [MnCl2]
synthesis of elastin (elastic fibers detected by immunocytochemistry) [9]: induce synthesis of elastin
deposition of extracellular matrix components, elastin and collagen type I [9]: induced
transcription of the elastin gene (elastin mRNA levels) (elastin mRNA [10]): can induce transcription of the elastin gene

CC1(C)CC(O)CC(C)(C)N1[O] [Tempol]
reversal of the inhibitory effect of 200 μM iron treatment on elastin deposition [11]: not observed

O=S(=O)([O-])[O-].[Mn+2] [MnSO4, manganese sulfate]
transcription of the elastin gene (elastin mRNA levels) (elastin mRNA [10]): can induce transcription of the elastin gene
agitation and migration of stratum basale-derived cells with fibroblastic phenotype (human skin): higher than control level of agitation and migration of stratum basale-derived cells with fibroblastic phenotype
infiltrating activated (differentiating) cells (×600) (human skin): seem to contain more such activated cells
elastic fibers (Movat's Pentachrome, ×400) (human skin): stimulated production of long elastic fibers primarily running perpendicular to the epidermis

CC(=O)N(O)CCCCCNC(=O)CCC(=O)N(O)CCCCCNC(=O)CCC(=O)N(O)CCCCCN [DFO, desferrioxamine]
iron induced increase in elastin deposition [11, 15]: abolished the iron induced increase
elastin mRNA levels (elastin mRNA [12]; 20 μM of DFO, compared to untreated control): significantly reduced
iron induced increase in elastin mRNA levels (elastin mRNA [12]; [15]): abolished the iron induced increase

catalase
reversal of the inhibitory effect of 200 μM iron treatment on elastin deposition [11]: not observed

manganese salt of L-Pyrrolidone Carboxylic Acid [Mn-PCA]
synthesis of elastin (elastic fibers detected by immunocytochemistry) [9]: induce synthesis of elastin
deposition of extracellular matrix components, elastin and collagen type I [9]: induced
dermal fibroblast proliferation (human dermal fibroblasts): stimulate dermal fibroblast proliferation
more elastin transcription over the control (elastin mRNA [10]): ~66%
transcription of the elastin gene (elastin mRNA levels) (elastin mRNA [10]): can induce transcription of the elastin gene
increase in elastin synthesis over the control [13]: two-fold
deposition of collagen type I [14]: increased deposition in collagen type I
